# According to patent US8680052B1, “Methods of treating, reducing the incidence of, and/or preventing ischemic events” (The Medicines Company, priority 2013, dated 2014):
# Where two headings read alike, the source gives them in different places.
# Tested on: patients with acute coronary syndromes undergoing PCI
# [1] = 48-hour, MITT Without STEMI, exploratory
smiles,measurement,setting,value
"COC(=O)[C@H](c1ccccc1Cl)N1CCc2sccc2C1 [Clopidogrel, clopidogrel, reference compound]",All-cause mortality,"48-hour, MITT Without STEMI",5 (0.1)
same,IDR,"48-hour, MITT Without STEMI",23 (0.6)
same,MI,"48-hour, MITT Without STEMI",256 (6.6)
same,Mortality/MI/IDR (primary endpoint),"48-hour, MITT Without STEMI",276 (7.1)
same,Q-wave MI,"48-hour, MITT Without STEMI",10 (0.3)
same,Stent thrombosis,"48-hour, MITT Without STEMI",11 (0.3)
same,Stroke,"48-hour, MITT Without STEMI",7 (0.2)
same,Mortality/Q-wave MI/IDR,[1],34 (0.9)
same,Mortality/Q-wave MI/Stent thrombosis,[1],23 (0.6)
same,All-cause mortality,"48 hours, ITT",11 (0.2) no. (%)
same,IDR,"48 hours, ITT",31 (0.7) no. (%)
same,MI,"48 hours, ITT",265 (6.0) no. (%)
same,Mortality/MI/IDR,"48 hours, ITT",297 (6.7) no. (%)
same,Mortality/Q-wave MI/IDR,"48 hours, ITT",48 (1.1) no. (%)
same,Mortality/Q-wave MI/Stent thrombosis,"48 hours, ITT",33 (0.7) no. (%)
same,Q-wave MI,"48 hours, ITT",10 (0.2) no. (%)
same,Stent thrombosis,"48 hours, ITT",15 (0.3) no. (%)
same,Stroke,"48 hours, ITT",8 (0.2) no. (%)
same,All-cause mortality,"48 hours, ITT With STEMI",5 (1.0) no. (%)
same,IDR,"48 hours, ITT With STEMI",8 (1.6) no. (%)
same,MI,"48 hours, ITT With STEMI",9 (1.8) no. (%)
same,Mortality/MI/IDR,"48 hours, ITT With STEMI",20 (3.9) no. (%)
same,Mortality/Q-wave MI/IDR,"48 hours, ITT With STEMI",13 (2.6) no. (%)
same,Mortality/Q-wave MI/Stent thrombosis,"48 hours, ITT With STEMI",9 (1.8) no. (%)
same,Q-wave MI,"48 hours, ITT With STEMI",0 (0.0) no. (%)
same,Stent thrombosis,"48 hours, ITT With STEMI",4 (0.8) no. (%)
same,Stroke,"48 hours, ITT With STEMI",1 (0.2) no. (%)
same,All-cause mortality,"48 hours, ITT Without STEMI",6 (0.2) no. (%)
same,IDR,"48 hours, ITT Without STEMI",23 (0.6) no. (%)
same,MI,"48 hours, ITT Without STEMI",256 (6.5) no. (%)
same,Mortality/MI/IDR,"48 hours, ITT Without STEMI",277 (7.1) no. (%)
same,Mortality/Q-wave MI/IDR,"48 hours, ITT Without STEMI",35 (0.9) no. (%)
same,Mortality/Q-wave MI/Stent thrombosis,"48 hours, ITT Without STEMI",24 (0.6) no. (%)
same,Q-wave MI,"48 hours, ITT Without STEMI",10 (0.3) no. (%)
same,Stent thrombosis,"48 hours, ITT Without STEMI",11 (0.3) no. (%)
same,Stroke,"48 hours, ITT Without STEMI",7 (0.2) no. (%)
same,All-cause mortality,"48 hours, MITT",9 (0.2) no. (%)
same,IDR,"48 hours, MITT",30 (0.7) no. (%)
same,MI,"48 hours, MITT",264 (6.1) no. (%)
same,Mortality/MI/IDR,"48 hours, MITT",293 (6.8) no. (%)
same,Mortality/Q-wave MI/IDR,"48 hours, MITT",45 (1.0) no. (%)
same,Mortality/Q-wave MI/Stent thrombosis,"48 hours, MITT",31 (0.7) no. (%)
same,Q-wave MI,"48 hours, MITT",10 (0.2) no. (%)
same,Stent thrombosis,"48 hours, MITT",15 (0.3) no. (%)
same,Stroke,"48 hours, MITT",7 (0.2) no. (%)
same,All-cause mortality,"48 hours, MITT With STEMI",4 (0.9) no. (%)
same,IDR,"48 hours, MITT With STEMI",7 (1.6) no. (%)
same,MI,"48 hours, MITT With STEMI",8 (1.8) no. (%)
same,Mortality/MI/IDR,"48 hours, MITT With STEMI",17 (3.8) no. (%)
same,Mortality/Q-wave MI/IDR,"48 hours, MITT With STEMI",11 (2.5) no. (%)
same,Mortality/Q-wave MI/Stent thrombosis,"48 hours, MITT With STEMI",8 (1.8) no. (%)
same,Q-wave MI,"48 hours, MITT With STEMI",0 (0.0) no. (%)
same,Stent thrombosis,"48 hours, MITT With STEMI",4 (0.9) no. (%)
same,Stroke,"48 hours, MITT With STEMI",0 (0.0) no. (%)
same,All-cause mortality,"48 hours, MITT Without STEMI",5 (0.1) no. (%)
same,IDR,"48 hours, MITT Without STEMI",23 (0.6) no. (%)
same,MI,"48 hours, MITT Without STEMI",256 (6.6) no. (%)
same,Mortality/MI/IDR (Prespecified primary endpoint),"48 hours, MITT Without STEMI",276 (7.1) no. (%)
same,Mortality/Q-wave MI/IDR,"48 hours, MITT Without STEMI",34 (0.9) no. (%)
same,Mortality/Q-wave MI/Stent thrombosis,"48 hours, MITT Without STEMI",23 (0.6) no. (%)
same,Q-wave MI,"48 hours, MITT Without STEMI",10 (0.3) no. (%)
same,Stent thrombosis,"48 hours, MITT Without STEMI",11 (0.3) no. (%)
same,Stroke,"48 hours, MITT Without STEMI",7 (0.2) no. (%)
same,"primary composite of all-cause mortality, MI, or ischemia-driven revascularization","48 hours, MITT Without STEMI",7.1%
same,All-cause mortality,"48 hours, Safety population",9 (0.2) no. (%)
same,IDR,"48 hours, Safety population",30 (0.7) no. (%)
same,MI,"48 hours, Safety population",265 (6.1) no. (%)
same,Mortality/MI/IDR,"48 hours, Safety population",294 (6.7) no. (%)
same,Mortality/Q-wave MI/IDR,"48 hours, Safety population",45 (1.0) no. (%)
same,Mortality/Q-wave MI/Stent thrombosis,"48 hours, Safety population",31 (0.7) no. (%)
same,Q-wave MI,"48 hours, Safety population",10 (0.2) no. (%)
same,Stent thrombosis,"48 hours, Safety population",15 (0.3) no. (%)
same,Stroke,"48 hours, Safety population",7 (0.2) no. (%)
same,All-cause mortality,"30 days, ITT",47 (1.1) no. (%)
same,IDR,"30 days, ITT",69 (1.6) no. (%)
same,MI,"30 days, ITT",293 (6.7) no. (%)
same,Mortality/MI/IDR,"30 days, ITT",373 (8.5) no. (%)
same,Mortality/Q-wave MI/IDR,"30 days, ITT",119 (2.7) no. (%)
same,Mortality/Q-wave MI/Stent thrombosis,"30 days, ITT",82 (1.9) no. (%)
same,Q-wave MI,"30 days, ITT",15 (0.3) no. (%)
same,Stent thrombosis,"30 days, ITT",30 (0.7) no. (%)
same,All-cause mortality,"30 days, ITT With STEMI",16 (3.2) no. (%)
